These results are taken from article PMC11036874, “In vitro characterization of [^125I]HY-3-24, a selective ligand for the dopamine D3 receptor” (Frontiers in Neuroscience, 2024).

The term Ki denotes the dissociation constant of the complex between target and ligand, obtained from inhibition or displacement. A word on the IC50: it is the point on the concentration scale where inhibition reaches its midpoint. A higher IC50 goes with weaker potency.

One assay has as its target T1, Muscarinic M2 (Homo sapiens, UniProt P08172).
T1 construct: Psychoactive Drug Screening Program (PDSP)
The assay is described as follows: PDSP binding screen. The note with it: HCl salt. The text has this: The binding of HY-3-24 to various GPCRs was investigated through comprehensive screening by Psychoactive Drug Screening Program (PDSP) (Supplementary Table S1) ([Besnard et al., 2012]). These GPCRs included major neurotransmitter receptors family (e.g., dopamine, serotonin, histamine, opioid, muscarinic, adrenergic, sigma receptors, ɤ-amino-butyric acid type A, and benzodiazepine receptors) and transporters (e.g., dopamine, norepinephrine, and serotonin transporter).

The next assay has as its target T2, sigma-1 (Cavia porcellus, UniProt Q60492).
T2 construct: from tissue; host or cells: guinea pig brain homogenates
The assay is described as follows: Sigma-1 binding assay with [3H]-(+)-pentazocine. The note with it: guinea pig brain homogenates. The procedure: The preparation of protein homogenates and sigma binding assay were conducted as described previously ([Luedtke et al., 2000]). For sigma-1 binding assay, [^3H]-(+)-pentazocine (50 μL, ~50,000 cpm) and HY-3-24 (concentrations ranging from 10^−5 to 10^−11 M) were mixed, guinea pig brain homogenates (100 μg/100 μL) were added and the mixture was incubated at 5% CO2, 37°C for 90 min. The assay was terminated by adding cold buffer (10 mM Tris–HCl, 150 mM NaCl, pH 7.5), and the mixture was filtered htrough Whatman CF/C filters (Brandel Inc., Maryland, United States) which were soaked in 1% polyethyleneimine (PEI). The collected filter was washed three times using cold buffer; non-specific binding was determined in the presence of 10 μM of haloperidol. The collected filters were mixed with 3 mL of microscint™20 by and counted overnight (1 min/well) using a beta counter (MicroBeta^2®, PerkinElmer, United Kingdom). The data were analyzed using PRISM 9.

A further assay addresses human D3R (Homo sapiens, UniProt P35462). Put plainly: β-arrestin recruitment assay for D3R. On the set-up: expressed in transfected cells. It counts as cell-based. As to the method:
Chinese hamster ovary CHO-K1 cells (CHO-K1) which were over expressed human D3R were cultured in assaycomplete™ cell culture kit 107 (DiscoverX, Fremont, CA, United States). Cells were seeded at a density of 25,000 cells per well of 96-well plate, and incubated at 5% CO2, 37°C. After 46 h, HY-3-24 was (10^−5 to 10^−11) in phosphate-buffered saline (PBS) was added to the cells. The plates were incubated for 30 min at 5% CO2, 37°C for the agonist binding assay; for the antagonist assay, cells were treated with 30 nM (EC80) of dopamine and then the mixture was incubated for 90 min. PathHunter™ β-arrestin recruitment assay kit (DiscoverX, Fremont, CA, United States) was added to each well, and the plate was incubated for 80 min at RT under the dark condition. The chemiluminescent signal was measured on a PerkinElmer Enspire plate reader (PerkinElmer, Boston, MA, United States). Data were analyzed by Prism followed by non-linear regression.

The target of the next assay is T3, sigma-2 (Rattus norvegicus, UniProt Q5U3Y7).
T3 construct: rat liver homogenates (15 μg/100 μL); from tissue; host or cells: rat liver homogenates
Put plainly: Sigma-2 binding assay with [125I]RHM4. The following applies: [125I]RHM4, rat liver homogenates. The procedure: For sigma-2 binding assay, HY-3-24 prepared in 10^−5 to 10^−11 M concentration range was mixed with [^125I]RHM4 (50 μL,~200,000 cpm) and rat liver homogenates (15 μg/100 μL). The mixture was vortexed briefly and incubated at room temperature (RT) for 90 min. The [^125I]RHM4-bound membrane was collected through Whatman CF/C filters by 24-well harvester (Brandel Inc., Maryland, United States), and washed with 4 mL of cold buffer. The filters were counted on a gamma counter (PerkinElmer, Massachusetts, United States). Cold RHM4 was used for defining non-specific binding. The Ki value was obtained by PRISM 9.

In a further assay the target is T4, human D2R (Homo sapiens, UniProt P14416).
T4 construct: expressed in transfected cells; host or cells: HEK293
Put plainly: D2R radioligand binding assay with [125I]IABN. The note with it: human D2R transfected HEK293 cell membranes, mean ± SEM of three experiments. The procedure:
(§1) The dopamine receptor binding assay was performed according to previous studies ([Luedtke et al., 2000]; [Vangveravong et al., 2006]; [Reilly et al., 2017]), and human D2R or D3R or D4 transfected HEK293 cells were used for dopamine receptor binding assay. The cells were grown in Dulbecco’s Modified Eagle Medium including 10% FBS, 0.1% Penn Strep, […] of geneticin (G418) for human D2R or D3R transfected HEK293 cells, and […] of puromycin for human D4 HEK293 cells at 5% CO2, 37°C. The cells were collected by centrifuge (6,000 × g, 10 min), and the supernatant was discarded. Cold homogenization buffer (50 mM Na Hepes, 0.1 mM EDTA, 1 mM DTT, pH 7.4) was added into the pellet and homogenized by a polytron (Brinkmann Instruments, Westbury, NY, United States), and centrifuged at 40,000 × g for 10 min. This process was repeated two more times to get final pellet, and the membranes were then resuspended with HB buffer including 5 mM MgCl2 and stored at −80°C until use.
(§2) HY-3-24 was prepared in 10^−5 to 10^−11 M concentration range with assay buffer (50 mM Tris–HCl, 150 mM NaCl, 10 mM EDTA, pH 7.5). […] The membrane was washed with cold buffer (three times), and collected filters were counted on a gamma counter (GMI, Minnesota, United States). The results were analyzed by nonlinear regression, and the data were reported mean ± SEM values by three independent experiments.

Another assay deals with T5, human D4 (Homo sapiens, UniProt P21917).
T5 construct: expressed in transfected cells; host or cells: HEK293
The assay is described as follows: D4R radioligand binding assay with [125I]IABN. The note with it: human D4 transfected HEK293 cell membranes, mean ± SEM of three experiments. As to the method: as §1, §2

“Also recorded” adds a separate entry of the source.

Sequence of human D3R (P35462 whole entry): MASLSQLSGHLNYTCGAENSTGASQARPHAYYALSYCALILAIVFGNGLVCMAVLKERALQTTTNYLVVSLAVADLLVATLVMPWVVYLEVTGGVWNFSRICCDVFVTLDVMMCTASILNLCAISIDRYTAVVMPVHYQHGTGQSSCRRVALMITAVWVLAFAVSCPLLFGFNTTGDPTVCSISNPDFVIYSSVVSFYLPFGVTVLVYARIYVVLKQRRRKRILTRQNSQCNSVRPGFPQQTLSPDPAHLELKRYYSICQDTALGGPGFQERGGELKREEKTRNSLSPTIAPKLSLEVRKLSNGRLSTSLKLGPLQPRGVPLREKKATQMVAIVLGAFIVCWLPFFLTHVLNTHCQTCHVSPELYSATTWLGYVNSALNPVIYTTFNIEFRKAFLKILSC
T3 sequence (Q5U3Y7 whole entry): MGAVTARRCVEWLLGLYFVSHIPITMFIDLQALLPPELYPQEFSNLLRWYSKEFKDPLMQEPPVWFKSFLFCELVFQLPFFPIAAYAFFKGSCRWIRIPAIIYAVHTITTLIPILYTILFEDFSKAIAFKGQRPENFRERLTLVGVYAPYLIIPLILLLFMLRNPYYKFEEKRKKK
T5 sequence (P21917 whole entry): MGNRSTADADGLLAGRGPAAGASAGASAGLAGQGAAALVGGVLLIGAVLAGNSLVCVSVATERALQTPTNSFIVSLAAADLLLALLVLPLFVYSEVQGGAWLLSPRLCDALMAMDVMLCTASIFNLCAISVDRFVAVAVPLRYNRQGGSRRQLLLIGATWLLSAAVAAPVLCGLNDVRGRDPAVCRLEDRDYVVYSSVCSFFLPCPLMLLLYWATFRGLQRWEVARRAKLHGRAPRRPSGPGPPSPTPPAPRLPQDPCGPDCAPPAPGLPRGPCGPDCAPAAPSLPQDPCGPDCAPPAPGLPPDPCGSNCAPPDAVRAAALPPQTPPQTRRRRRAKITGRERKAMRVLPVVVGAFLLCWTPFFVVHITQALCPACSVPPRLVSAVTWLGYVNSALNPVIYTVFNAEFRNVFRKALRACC
T2 sequence (Q60492 whole entry): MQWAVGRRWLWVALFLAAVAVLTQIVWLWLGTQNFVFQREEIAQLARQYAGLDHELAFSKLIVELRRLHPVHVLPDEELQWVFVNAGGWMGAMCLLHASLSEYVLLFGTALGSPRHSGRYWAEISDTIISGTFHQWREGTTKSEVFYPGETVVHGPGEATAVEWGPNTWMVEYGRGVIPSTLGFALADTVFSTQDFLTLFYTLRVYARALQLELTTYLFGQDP
T4 sequence (P14416 whole entry): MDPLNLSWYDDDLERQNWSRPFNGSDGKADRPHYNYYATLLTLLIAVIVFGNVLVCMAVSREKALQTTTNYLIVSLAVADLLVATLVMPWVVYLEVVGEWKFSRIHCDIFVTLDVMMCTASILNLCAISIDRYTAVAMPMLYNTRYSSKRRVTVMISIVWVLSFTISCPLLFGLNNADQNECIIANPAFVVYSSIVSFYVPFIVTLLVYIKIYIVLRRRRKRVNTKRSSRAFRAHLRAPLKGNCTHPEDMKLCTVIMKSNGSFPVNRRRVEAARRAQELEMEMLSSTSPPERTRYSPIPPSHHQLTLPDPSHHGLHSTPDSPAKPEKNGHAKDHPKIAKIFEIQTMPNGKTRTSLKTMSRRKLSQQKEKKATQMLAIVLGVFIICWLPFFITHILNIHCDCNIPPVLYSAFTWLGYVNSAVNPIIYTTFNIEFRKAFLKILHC
T1 sequence (P08172 whole entry): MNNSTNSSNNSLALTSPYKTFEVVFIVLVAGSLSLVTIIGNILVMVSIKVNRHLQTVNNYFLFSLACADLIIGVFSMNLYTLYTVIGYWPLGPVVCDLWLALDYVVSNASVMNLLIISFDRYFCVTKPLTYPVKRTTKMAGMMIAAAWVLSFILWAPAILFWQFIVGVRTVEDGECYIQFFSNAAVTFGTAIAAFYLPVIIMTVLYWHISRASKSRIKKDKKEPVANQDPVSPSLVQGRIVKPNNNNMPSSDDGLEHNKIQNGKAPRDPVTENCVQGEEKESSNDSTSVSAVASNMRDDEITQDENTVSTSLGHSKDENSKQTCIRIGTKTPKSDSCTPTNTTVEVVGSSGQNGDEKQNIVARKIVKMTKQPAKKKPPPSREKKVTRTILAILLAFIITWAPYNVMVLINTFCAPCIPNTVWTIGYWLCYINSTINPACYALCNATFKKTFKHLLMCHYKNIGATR

For the molecule `CCN(CCCNC(=O)c1ccc(-c2ccncc2)cc1)CCNC(=O)c1cc(I)cc(OC)c1OC` [HY-3-24, N-(2-(Ethyl(3-(4-(pyridin-4-yl)benzamido)propyl)amino)ethyl)-5-iodo-2,3-dimethoxybenzamide], the inhibition constant Ki is 832 nM on Muscarinic M2, 86.7 ± 11.9 nM at human D2R and more than 1000 nM on human D4. Further, the “binding to sigma-1 receptors” value on sigma-1 was “did not bind”; on sigma-1 (listed as HY-2-34), “low affinity”. For the same molecule, the “EC50 β-arrestin recruitment D3R” value at human D3R (agonist mode, 10^-5 to 10^-11 M, human D3R CHO-K1 cells) was “no β-arrestin recruitment; also recorded: N.A (not active)”. The molecule also gave an IC50 at human D3R (antagonist mode, vs 30 nM (EC80) dopamine, human D3R CHO-K1 cells) of 1.5 ± 0.58 nM. Moreover, the “functional mode at D3R” value on human D3R (β-arrestin recruitment assay) is given as “antagonist”. In addition, the “binding to sigma-2 receptors” value at sigma-2 is “did not bind”; at sigma-2 (listed as HY-2-34) it was “low affinity”. Moreover, the “Ki D4R” value at human D4 (listed as HY-2-34) was “negligible”.
